Assay results as given in article PMC6563099, “Novel Thienopyrimidine Derivative, RP-010, Induces β-Catenin Fragmentation and Is Efficacious against Prostate Cancer Cells” (Cancers, 2019).
Like-named read-outs stand apart in the source and are kept apart here.

Columns and labels:
DU145 [1] = assay: DAPI staining of nuclear changes, DU145; type: cell-based
Method: The nuclear changes in DU145 and PC-3 cells lines produced by RP-010 (1, 2 and 4 µM) incubation at 24 or 48 h were determined using DAPI staining. The cells were seeded on culture cover glasses in 6-well plates, and allowed to grow overnight. The cells were then incubated with RP-010, for an additional 24 h, at 37 °C. The incubated cells were fixed with 4% paraformaldehyde, followed by permeabilization with 1× PBS/0.3% Triton X-100 for 25 min. Finally, DAPI stain was added, and cells were photographed using the EVOS microscope.

PC-3 [2] = assay: MTT cytotoxicity assay, PC-3 prostate cancer cells; type: cell-based; conditions: MTT assay, means ± SDs of three independent experiments, read-out: IC50 ± SD, Prostate Cancer Cells, PC-3
Method: (§1) All the cells were cultured as adherent monolayers in culture flasks, and were used to determine the anti-cancer efficacy of RP-010. DMEM supplemented with 4.5 g of glucose, 10% fetal bovine serum (FBS) and 1% penicillin/streptomycin, was used to augment cell growth. Finally, the cells were incubated and grown in a humidified incubator containing 5% CO2 at 37 °C [50]. […] Cells were obtained from frozen stocks and cell passaging (up to P4) was performed at 80% cell confluency, using PBS and trypsin + 2.2-mM EDTA.
(§2) MTT assays were used to determine the cytotoxicity of the RP compounds, to PC cell lines, as previously described.

PC-3 [3] = assay: Wound healing assay, PC-3; type: cell-based; conditions: 0.5, 1, 2 or 4 µM, 12-24 h, vs vehicle
Method: (§3) This assay was conducted using DU145 and PC-3 cells as previously described. Upon confluence, 200 μL sterile tips were used to create a wound by gently scratching the complete cell monolayer. Sterile PBS was used to wash the cells several times to remove any floating cells. Different concentrations of the test compound were prepared in the culture media and added immediately after wound formation. The closure of the wound was observed by taking pictures at different time points by the EVOS microscope (Thermo Fisher Scientific, Wayne, MI, USA). Finally, the area of the wounds, at different time points, was calculated using Image J software (NIH, Bethesda, MD, USA).

CHO = assay: MTT cytotoxicity assay, CHO cells; type: cell-based; conditions: Cricetulus griseus, Chinese hamster ovarian cell line, means ± SDs of three independent experiments, read-out: IC50 ± SD, Non-Prostate Cells, CHO
Method: as §1, §2

DU145 [4] = assay: Oxidative stress (H2DCFDA fluorescence), DU145; type: cell-based; conditions: 0.5, 1, 2 or 4 µM, 24 h, vs vehicle
Method: (§4) The compound 2′,7′-dichlorofluorescin (H2DCFDA) was used to detect changes in the oxidative stress status, as previously described in PC-3 and DU145. […] The cells were then washed 3 times with 1× PBS for 5 min each. The level of reactive oxygen species was then measured, based on the fluorescence level of oxidized H2DCFDA dye (excitation at 485 nm and emission at 535 nm), using an EVOS digital fluorescent microscope at 40×.

PC-3 [5] = assay: Oxidative stress (H2DCFDA fluorescence), PC-3; type: cell-based; conditions: 1, 2 and 4 µM, 24 h, vs vehicle
Method: as §4

PC-3 [6] = assay: Transwell migration assay, PC-3; type: cell-based; conditions: 24 h
Method: The assay was done as previously described. The effect of RP-010, (0.5, 1 or 2 µM) on the migration of PC cells was tested using 24 trans-well inserts with an […] pore size. The addition of the insert to the well forms two chambers (upper and lower), where the upper chamber was used to grow the cells on the porous membrane. The lower chamber was filled with 600-μL cell-free DMEM medium. 200-μL of the cell suspension was added to each insert, and cells allowed to attach for 1 h. The test compound was added in different concentrations and incubated with the cells for 24 h. […] Finally, the remaining migrated cells were fixed by methanol, and stained with 0.1% crystal violet dye and counted with an EVOS microscope. The number of migrated cells was counted for the cultures incubated with vehicle or RP-010.

HCT116 = system: HCT116; set-up: method as in PMID 28759878; conditions: colon cancer cell line; cited from earlier work
DU145 [7] = assay: Wound healing assay, DU145; type: cell-based; conditions: 0.5, 1, 2 or 4 µM, 12-48 h, vs vehicle
Method: as §3

[8] = system: Wnt/β-catenin signaling pathway proteins in DU145 cells; assay: Western analysis of Wnt/β-catenin signaling pathway proteins, DU145; type: cell-based
Method: DU145 cells were incubated with RP-010 ((1 or 2 µM) for 24 h. Thereafter, the cells were subjected to a two-step lysis process to extract and separate the cytosolic and the nuclear proteins, as previously described. Next, protein separation for both cytosolic and nuclear proteins was achieved by electrophoresing the samples through acrylamide SDS-PAGE gels, followed by transfer to a PVDF membrane. The PVDF membrane was then incubated overnight with the following primary antibodies: rabbit α-tubulin, 1:4000 dilution, rabbit BAX (1:1000), rabbit BAK (1:1000), rabbit cytochrome c (1:1000), rabbit PARP (1:5000), rabbit β-Catenin (1:4000), rabbit DVL3 (1:4000), rabbit LRP-6 (1:1000), rabbit P-LRP-6 (1:1000), rabbit c-Myc (1: 4000), rabbit cyclin B1 (1:2000), rabbit Wnt 5a (1:1000), rabbit naked 1 and naked 2 (1:1000), mouse E-cadherin (1:4000), mouse N-cadherin (1:4000), mouse β-actin (1:5000) and rabbit histone (1:3000). Finally, protein expression levels were determined as described previously. In the Figure 3, Figure 5 and Figure S8, the protein blots above β-actin were cytosolic lysates, while all the proteins below β-actin and above histones (loading controls) were nuclear lysates.

HCT115 = system: HCT115; set-up: method as in PMID 28759878; conditions: colon cancer cell line; cited from earlier work
[9] = DU145, 1 or 2 μM, 24 h, p < 0.01

## COc1ccc(-c2nc3sc4c(c3c(=O)[nH]2)CCCC4)cc1 [RP10]
DU145 [1]; 1 µM, 24 h
  Nuclear morphology (DAPI): produced multinucleated cells
DU145 [1]; 1, 2 or 4 µM, 48 h
  Nuclear morphology (DAPI): primarily produced early stage apoptotic nuclear morphology
DU145 [1]; 2 or 4 µM, 24 h
  Nuclear morphology (DAPI): significantly increased numbers of highly condensed, fragmented nuclear chromatin
PC-3 [2]; listed as RP-010
  IC50: < 1000 nM
PC-3 [2]
  IC50: 300 ± 100 nM
PC-3 [3]
  Wound healing (cell migration): significantly decreasing wound healing
CHO
  IC50: 14000 ± 1300 nM
DU145 [4]
  Reactive oxygen species (ROS) level: significantly higher levels
PC-3 [5]
  Reactive oxygen species (ROS) level: elevated ROS levels
PC-3 [6]; 0.5 μM
  Transwell migration: not significantly altered
PC-3 [6]; 1 or 2 μM, p < 0.05
  Transwell migration: significantly decreased
HCT116
  IC50: 600 ± 300 nM
DU145 [7]
  Wound healing (cell migration): significant decrease
[8]; 1 and 2 µM
  Expression levels of N-cadherin: did not significantly alter
[8]; DU145, 1 or 2 μM, 24 h
  Accumulation of lower molecular weight β-catenin fragments (P3, P4): increased the accumulation
  Fragmentation of full-length β-catenin (p92) into lower molecular weight fragments (≈70 kDa): significant fragmentation
  Levels of E-cadherin: did not significantly alter
  Levels of Wnt 5a: no significant change
  Levels of nuclear c-Myc: significantly decreased
  Levels of total active β-catenin: significant decrease
  Nuclear levels of Naked 1: significantly increased
  Nuclear levels of Naked 2: significantly increased
  Nuclear levels of cyclin B1: not significantly altered
[8]; DU145, 1 or 2 μM, 24 h, p < 0.001
  Levels of cytosolic Naked 1: significantly decreased
[8]; [9]
  Cytosolic levels of cyclin B1: decreased significantly
  Levels of DVL3: significantly decreased
  Levels of cytosolic Naked 2: significantly decreased
  Levels of phosphorylated LRP-6 (P-LRP-6): significantly decreased
[8]; DU145, 1 or 2 μM, 24 h, p < 0.05
  Levels of LRP-6: significantly decreased
HCT115
  IC50: 700 ± 200 nM
